Experimental data: PubChem BioAssay (NCI)
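Compound exposure: 48 hours, 5 concentrations, 96-well plates. At the TGI there is no net growth.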

Legend:
Assay in all cases: NCI anticancer screen, dose series, 48 h
MDA-MB-231 breast = system: MDA-MB-231 breast
MOLT-4 leukemia = system: MOLT-4 leukemia
HS 578T breast = system: HS 578T breast
CAKI-1 renal = system: CAKI-1 renal
UACC-257 melanoma = system: UACC-257 melanoma
SN12C renal = system: SN12C renal
786-0 renal = system: 786-0 renal
HCT-116 colon = system: HCT-116 colon
SW-620 colon = system: SW-620 colon
PC-3 prostate = system: PC-3 prostate
SNB-19 CNS = system: SNB-19 CNS

Row | SMILES | TGI (MDA-MB-231 breast) | TGI (MOLT-4 leukemia) | TGI (HS 578T breast) | TGI (CAKI-1 renal) | TGI (UACC-257 melanoma) | TGI (SN12C renal) | TGI (786-0 renal) | TGI (HCT-116 colon) | TGI (SW-620 colon) | TGI (PC-3 prostate) | TGI (SNB-19 CNS)
1 | N#Cc1nsnc1-c1nc(-c2nsnc2C#N)nc(-c2nsnc2C#N)n1 | > 100 µM | > 100 µM | 94 µM | > 100 µM | > 100 µM | > 100 µM | > 100 µM | > 100 µM | > 100 µM | > 100 µM | > 100 µM
2 | CCOC(=O)CC[C@@H](NC(=O)c1ccc(NCc2ccc3nc(OC)c(OC)nc3c2)cc1)C(=O)OCC | > 100 µM | > 31.6 µM | > 80.9 µM | > 100 µM | 31.4 µM | > 100 µM | > 100 µM | > 100 µM | > 100 µM | > 100 µM | > 100 µM
3 | C=CCOc1ccc(C2c3c([nH][nH]c3=O)CC(C)(O)C2C(=O)OC)cc1OC (stereo not drawn) | > 100 µM | > 100 µM | > 100 µM | > 100 µM | > 100 µM | > 100 µM | > 100 µM | > 100 µM | > 100 µM | > 100 µM | > 100 µM
4 | COc1ccc(NC(C)=O)c(C(=O)CCNC(C)=O)c1 | > 100 µM | > 100 µM | > 100 µM | > 100 µM | > 100 µM | > 100 µM | > 100 µM | > 100 µM | > 100 µM | > 100 µM | > 100 µM
5 | Cc1ccc(S(=O)(=O)OCC23CCC(C4CC42)C2CC23)cc1 (stereo not drawn) | – | > 100 µM | – | > 100 µM | 89.1 µM | > 100 µM | > 100 µM | > 100 µM | > 100 µM | – | > 100 µM
6 | C/C=C/OC1C(C2COC(C)(C)O2)OC2OC(C)(C)OC21 (stereo not drawn) | > 100 µM | > 100 µM | > 100 µM | > 100 µM | > 100 µM | – | > 100 µM | > 100 µM | > 100 µM | > 100 µM | > 100 µM
7 | C=C(Br)C(Cl)(CBr)CCC(Br)C(C)(C)Cl (stereo not drawn) | > 10 µM | > 10 µM | – | > 10 µM | – | > 10 µM | > 10 µM | > 10 µM | > 10 µM | > 10 µM | > 10 µM
8 | C=C1CC(CNc2cc(Cl)nc(N)n2)C1 | > 100 µM | > 100 µM | > 100 µM | > 100 µM | > 100 µM | > 100 µM | > 100 µM | – | > 100 µM | > 100 µM | > 100 µM
9 | N#C[C@](CO)(NC(=O)OCc1ccccc1)C(F)F | > 100 µM | > 100 µM | > 100 µM | > 100 µM | > 100 µM | – | > 100 µM | > 100 µM | > 100 µM | > 100 µM | > 100 µM
10 | Cc1ccc(C2=Nc3ccccc3NC(=O)C2)cc1 | – | > 100 µM | – | > 100 µM | > 100 µM | > 100 µM | > 100 µM | > 100 µM | > 100 µM | – | > 100 µM
11 | FC(F)(F)C1(C(F)(F)F)OC(Cl)(Cl)C(Cl)(Cl)O1 | > 10 µM | – | > 10 µM | > 10 µM | > 10 µM | – | > 10 µM | > 10 µM | > 10 µM | > 10 µM | > 10 µM
